The source of these data is patent US20060135623A1, “Decrease in oxidative stress status through the administration of natural products and pharmaceutical drugs” (priority 2004, published 2006).

Assay [1] concerns C. elegans. In words: Lifespan of C. elegans under agar culture conditions. It is filed as in vivo. On the procedure:
Additional studies to determine the effect of GGA on lifespan were performed using agar culture conditions. […] 100 μM GGA produces an 11% mean and 13% maximum percent increase in lifespan (Pvalue=0.039). The methods described above for the testing of GGA were employed in the testing of the class IIIa compound, LSG 712. […] 100 μM LSG 712 produces an 12% mean percent extension in lifespan (Pvalue=0.055).

The test system of assay [2] is C. elegans. The assay can be described thus: Age dependent accumulation of lipofuscin pigment in C. elegans (confocal fluorescence). It is filed as in vivo. The following applies: for accumulation of lipofuscin: day 8, control about 65. On the procedure:
The effect of GGA on the age dependent accumulation of lipofuscin pigment was measured in C. elegans after treatment of worms with various concentrations of the drug. Wild type C. elegans were obtained from the University of Minnesota Caenorhabditis Genetics Center. A 250 mM stock of GGA was dissolved in ethanol and then diluted into 1× M9 OP50 worm food solution. Synchronized eggs were placed on plates containing no drug, 5 μM, 50 μM, or 500 μM GGA and allowed to hatch. On day 8, the worms were washed in 9M buffer and placed on a microscope slide. The amount of lipofuscin pigment was measured using a confocal microscope measuring fluorescence at 488 nm. Fluorescent scans were performed to quantify the amount of lipofuscin pigment. The quantification was normalized to the total area size of the worm in nm^2. The effect of LSG 712 on the age dependent accumulation of lipofuscin pigment was measured in C. elegans after treatment of worms with various concentrations of the drug. Synchronized eggs were placed on plates containing no drug and various concentrations of LSG 712 and allowed to hatch. On day 16, the worms were washed in 9M buffer and placed on a microscope slide. The amount of lipofuscin pigment was measured using a confocal microscope measuring fluorescence at 488 nm.

In assay [3] the test system is C. elegans. In words: Cumulative percent loss of C. elegans cultured on agar plates over time. It is filed as in vivo. On the procedure:
Another assay that can be used to measure lifespan extension in C. elegans is to measure the cumulative percent loss of C. elegans cultured on agar plates over time in the presence of GGA (LSG 711). C. elegans were maintained as described above. […] Lifespan extension in the presence of the class IIIa compound where R2 is acetone (LSG 712) was also measured in C. elegans using the cumulative percent loss of C. elegans over time as an assay. The methods described above for the testing of GGA were employed in the testing of LSG 712.

Assay [4] concerns C. elegans. The assay can be described thus: Thermotolerance of C. elegans (35 degrees, SYTOX green fluorescence). It is filed as in vivo. On the procedure: The thermotolerance experiments were performed by workers at the Buck Institute on Aging in Novato, California under contract with the applicant. The workers at the Buck Institute performed these experiments under the direction and control of the applicant. The method used is that described in Sampayo et al., Aging Cell, 2: 319-326 (2003). In brief, 50 μl of the test compound dilution was added to a 10 ml week old agar plate spotted with 200 μl of concentrated E. coli OP50. The plates were set aside for 2-5 hours to allow the compounds to disperse. Age synchronous worm cultures of wide type (N2 strain) worms were prepared by hypochroride treatment of fertile adults and grown to three days of age at 20° C. The worms were washed off, resuspended in a small volume of S-basal and approximately 1000 worms were spotted onto each compound plate (˜1000 worms per plate) and the plates were incubated at 20° C. for 24 hours. Thermotolerance was measured using a Fluorskan Ascent fluorometer (Thermo Labsystems, MA). The fluorometer temperature was set to 35 °C and the fluorescence was measured in each well every 30 minutes over a 20-24 hour period, with a 20 millisecond integration time for each well. For SYTOX green fluorescence, the excitation wavelength was set to 485 nm and the emission wavelength at 538 nm. Analysis of individual fluorescence curves to determine the time of death was performed using the Fluoroskan Ascent software. Differences in thermotolerance were assessed using the Mantel-Haenszel Logrank test as implemented in Prism (GraphPad Software Inc.). Kaplan-Meier survival curves were generated using Prism survival analysis. […] C. elegans were maintained and handled as described above. The effect of a GGA analogue promoting thermotolerance was tested. The thermotolerance experiments were performed by workers at the Buck Institute on Aging in Novato, California under contract with the applicant. The workers at the Buck Institute performed these experiments under the direction and control of the applicant. […]

In assay [5] the test system is C. elegans. In words: Survival (life expectancy and lifespan) of C. elegans in liquid culture. It is filed as in vivo. The conditions noted are these: for life expectancy / lifespan: liquid culture, 25 degrees Celsius; for life expectancy: control 19 days; for lifespan: control 28 days. The protocol: The effect of geranylacetone (GA) and geranylgeranyl acetone (GGA) on the lengthening of lifespan and life expectancy was studied using the model organism, C. elegans, a system that is commonly used to study aging. GA and GGA were tested at three different concentrations of 5 μM 50 μM and 500 μM. The drugs were dissolved in ethanol, and thus ethanol with no drug present was used as the control in these experiments. 100 worms were used to test each concentration of the drug. GA is assumed to be a pure drug at 4.3 M and was dissolved in 100% ethanol. The drug was then diluted in S basal plus cholesterol plus bacteria OP50 such that the final concentration of ethanol on all plates was 1%. GGA was treated as 10% active with an inert carrier. Thus, all treatments were done with a 10-fold increase over the calculated concentration. GGA was suspended in 100% ethanol at 50 degrees Celsius and mixed for about hour after which the supernatant from this mixture was used. The drug was then diluted in S basal plus cholesterol plus bacteria OP50 such that the final concentration of ethanol on all plates was 1%. Wild type N2 C. elegans were obtained from the University of Minnesota Caenorhabditis Genetics Center. All assays were conducted on OP50 (CGCb) using 1× M9 OP50 worm food solution. Survival experiments were carried out in duplicate culture (2 cohorts, 50 worms each) at 25 degrees Celsius. Worms were exposed to the drugs at day 3 of life when set up in liquid culture with OP50 at 10^9 bacteria/ml. Worms were transferred daily for the first six days to remove progeny and to assess mortality. At day 10 and thereafter transfers were done 3 times per week. At each transfer, fresh drug was added to the desired concentration in a manner to achieve a final ethanol concentration of 1%.

For a further assay, the system named is serum thioredoxin. In words: Serum thioredoxin levels in human volunteers given GGA. In kind it is in vivo. The following applies: three 50 mg capsules per day, pre-treatment about 175 ng/ml. The protocol: To test the effect of GGA in providing oxidative stress protection in humans, 2 human volunteers were given three 50 mg capsules of GGA per day. Serum levels of thioredoxin, a protein important in protection from oxidative stress was measured at various time intervals as shown in FIG. 9.

The nature of assay [6]: Extrapolation of C. elegans survival data to human life expectancy and lifespan. From the text: The extension of life span in the nematode can also be directly measured. The inventor has discovered that feeding GGA to nematodes increased both the mean and maximum lifespan of the nematode by about 50 percent. The increase in lifespan found in the nematode is equivalent to an increase in human life expectancy from 75 years to about 112 years and human lifespan from 120 years to 180 years.

The mark [7] stands for this setting: feeding to nematodes, summary statement, concentration not given.
[8] abbreviates: extrapolated from C. elegans survival at 500 μM (FIG. 3).

Regarding `CC(=O)/C=C/C=C(\C)CC/C=C(\C)CC/C=C(\C)CCC=C(C)C` [LSG 712], the “mean percent increase in lifespan” value in the assay on C. elegans [1] (50 μM) and in the assay with C. elegans [1] (100 μM) was 12% throughout. For the same compound, in the assay on C. elegans [2] (day 16, compared with non-treated control worms, concentration not given), the “reduction in the amount of lipofuscin pigment” value is on record as 50%. For the same compound, the “maximum percent increase in protection” value in the assay with C. elegans [3] (50 μM) was found to be 25%; in the assay with C. elegans [3] (100 μM) it was 20%. Moreover, the figures for the “mean percent increase in protection” value in the assay with C. elegans [3] (50 μM) and in the assay on C. elegans [3] (100 μM) were 21% and 12%, respectively. Also, in the assay with C. elegans [4] (100 μM), the “mean increase in lifespan extension (thermotolerance)” value is on record as 19%.

For `CC(=O)CC/C=C(\C)CC/C=C(\C)CC/C=C(\C)CCC=C(C)C` [GGA, Geranylgeranyl acetone], the life expectancy in the assay with C. elegans [5] (5 μM) is 21 days; with C. elegans [5] (50 μM), 23 days; in the assay on C. elegans [5] (500 μM), 23 days. Besides, the lifespan is reported as 33 days with C. elegans [5] (5 μM), 35 days with C. elegans [5] (50 μM) and 37 days in the assay on C. elegans [5] (500 μM). The “increase of maximum lifespan of the nematode” value in the assay on C. elegans [5] (setting [7]) was “about 50%”. The “increase of mean lifespan of the nematode” value in the assay on C. elegans [5] (setting [7]) is recorded as “about 50%”. The figures for the “maximum percent increase in lifespan” value in the assay with C. elegans [1] (50 μM) and in the assay on C. elegans [1] (100 μM) were 8% and 13%, respectively. For the same compound, the “mean percent increase in lifespan” value in the assay with C. elegans [1] (50 μM) and in the assay with C. elegans [1] (100 μM) was 11% in each case. In addition, the accumulation of lipofuscin entry in the assay on C. elegans [2] (5 μM) is given as “about 15 autofluorescent intensity/area units”; in the assay on C. elegans [2] (50 μM), “under 5 autofluorescent intensity/area units”; in the assay on C. elegans [2] (500 μM), “under 10 autofluorescent intensity/area units”. Besides, the “lipofuscin accumulation by confocal fluorescence microscopy (FIG. 5)” value with C. elegans [2] (qualitative) is listed as “reduction of lipofuscin accumulation”. Moreover, the serum thioredoxin result in the assay with serum thioredoxin (one volunteer, after approximately 32 days) is given as “about 275 ng/ml”; in the assay on serum thioredoxin (second volunteer), “about 425 ng/ml”. For the same compound, the “maximum percent increase in protection” value in the assay with C. elegans [3] (50 μM) is −7%; with C. elegans [3] (100 μM), 12%. The “mean percent increase in protection” value in the assay on C. elegans [3] (50 μM) is given as −4%; with C. elegans [3] (100 μM), 7%. For the same compound, the “maximum increase in lifespan extension (thermotolerance)” value in the assay on C. elegans [4] (500 μM) is 27%. In addition, the “mean increase in lifespan extension (thermotolerance)” value in the assay on C. elegans [4] (500 μM) is 29%. The “equivalent human life expectancy” value in assay [6] (equivalent of nematode lifespan increase, from 75 years) is listed as “about 112 years”. Also, the equivalent human lifespan in assay [6] (equivalent of nematode lifespan increase, from 120 years) was 180 years. Besides, the “predicted human life expectancy” value in assay [6] (setting [8]) is 85-100 years. Besides, the “predicted human life span” value in assay [6] (setting [8]) is listed as 120-159 years.

In the assay with C. elegans [5] (5 μM), `CC(=O)CC/C=C(\C)CCC=C(C)C` [GA, geranylacetone] came in with a life expectancy of 21 days and a lifespan of 32 days. In the assay on C. elegans [5] (50 μM), this compound yielded a life expectancy of 21 days and a lifespan of 30 days.
